{"source": "paper PMC9950073", "about": "“Alleviation of arthritis through prevention of neutrophil extracellular traps by an orally available inhibitor of protein arginine deiminase 4” (Scientific Reports, 2023)", "target": "T1, CYP3A4 (Homo sapiens, UniProt P08684)", "T1 construct": "from tissue; host or cells: human liver microsomes", "T1 sequence (P08684 whole entry)": "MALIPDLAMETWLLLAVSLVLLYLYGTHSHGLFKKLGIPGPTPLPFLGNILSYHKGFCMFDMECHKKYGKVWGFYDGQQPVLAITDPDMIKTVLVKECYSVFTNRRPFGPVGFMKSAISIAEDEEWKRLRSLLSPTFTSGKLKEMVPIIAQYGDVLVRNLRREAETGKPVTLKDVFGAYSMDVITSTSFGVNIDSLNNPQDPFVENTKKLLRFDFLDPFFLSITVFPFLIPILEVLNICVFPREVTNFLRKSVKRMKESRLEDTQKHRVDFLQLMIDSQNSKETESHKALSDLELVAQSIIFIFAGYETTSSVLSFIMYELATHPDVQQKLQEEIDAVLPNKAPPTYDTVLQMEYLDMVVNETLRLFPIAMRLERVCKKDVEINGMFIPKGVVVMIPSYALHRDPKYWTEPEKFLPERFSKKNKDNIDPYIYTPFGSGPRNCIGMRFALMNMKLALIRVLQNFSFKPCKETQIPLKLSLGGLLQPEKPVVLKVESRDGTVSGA", "test": "CYP inhibition in human liver microsome, CYP3A4", "type": "in vitro ADME", "procedure": "CYP inhibition: Human liver microsome (0.1–0.5 mg/mL for various CYPs) and appropriate probe substrates (2.5–20 µM) were incubated in potassium phosphate buffer with or without JBI-589 for 5 min at 37 °C. The reaction was initiated by addition of NADPH (1 mM), incubated at 37 °C for 10 min and quenched (0.5% Formic acid in internal standard (IS) containing ACN). Samples were then centrifuged and taken for LC–MS/MS analysis. Percent change in metabolite formation for each substrate under above conditions using formula: Percent inhibition = [1 − (test area ratio/control area ratio)] *100."}
{"smiles": "Cc1c(-c2cc3ccccc3n2Cc2ccc(F)cc2)nc2cc(C(=O)N3CCC[C@@H](N)C3)ccn12", "note": "[JBI-589, (R)-(3-aminopiperidin-1-yl)(2-(1-(4-fluorobenzyl)-1H-indol-2-yl)-3-methylimidazo[1,2-a]pyridin-7-yl)methanone]", "values": [{"measurement": "inhibition at 10 min, 10 µM", "setting": "human liver microsomes, 10 µM, human liver microsome, read-out: CYP3A4 inhibition (% inh @10 µM)", "value": "< 50", "unit": "%"}, {"measurement": "IC50", "setting": "predicted from % inhibition, text says major CYPs tested", "value": "> 10", "unit": "µM"}]}
